Results as given in patent US6713473B1, “Tricyclic compounds” (Meiji Seika Kaisha, Ltd., priority 1999, dated 2004).

What follows are compounds tested against T1, human Y5 receptor (Homo sapiens, UniProt Q15761) (assay: Y5 receptor binding inhibition test). Conditions: not given.
T1 sequence (Q15761 1-445): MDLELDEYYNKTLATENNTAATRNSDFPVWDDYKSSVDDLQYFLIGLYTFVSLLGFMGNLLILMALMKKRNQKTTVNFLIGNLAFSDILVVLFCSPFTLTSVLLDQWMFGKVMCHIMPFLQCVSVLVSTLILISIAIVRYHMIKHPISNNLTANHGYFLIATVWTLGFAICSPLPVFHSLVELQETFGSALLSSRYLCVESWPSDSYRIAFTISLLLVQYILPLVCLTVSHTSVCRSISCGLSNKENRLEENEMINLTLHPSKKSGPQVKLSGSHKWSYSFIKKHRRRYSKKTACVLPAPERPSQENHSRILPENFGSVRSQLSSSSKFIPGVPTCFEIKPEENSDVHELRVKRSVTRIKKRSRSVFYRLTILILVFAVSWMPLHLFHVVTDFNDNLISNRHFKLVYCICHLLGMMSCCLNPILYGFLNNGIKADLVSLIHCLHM

SMILES	% Inhibition ratio (10 μM)
CC(C)n1c2c(c3cc(NC(=O)N(CCO)CCO)ccc31)CCCC2 [Compound 6-2]	86%

Same assay, conditions: 2 h, read-out: % Inhibition ratio (10 μM)

SMILES	inhibition at 10 µM
CCn1c2ccccc2c2cc(NC(=O)CCCCCNS(=O)(=O)c3cccc4ccccc34)ccc21 [Compound 1-2]	91%
CC(C)n1c2ccccc2c2cc(C(=O)NCCCCCNS(=O)(=O)c3cccc4ccccc34)ccc21 [Compound 1-47]	100%
CCn1c2ccccc2c2cc(C(=O)NCCCCCNS(=O)(=O)c3cccc4ccccc34)c(O)cc21 [Compound 1-42]	74%
CC(C)n1c2c(c3cc(NC(=S)N(C)CCc4ccncc4)ccc31)CCCC2 [Compound 12-3]	97%
CCn1c2ccccc2c2cc(NC(=O)C3CC3)ccc21 [Compound 3-5]	100%
CCn1c2ccccc2c2cc(C(=O)NCCCCCNC(=O)C34CC5CC(CC(C5)C3)C4)ccc21 [Compound 1-20]	86%
CCn1c2ccccc2c2cc(C(=O)NCCCCCNC(=O)c3ccccc3)ccc21 [Compound 1-21]	97%
CCn1c2ccccc2c2cc(NC(=O)CCCNS(=O)(=O)c3cccc4ccccc34)ccc21 [Compound 1-5]	98%
CCn1c2ccccc2c2cc(C(=O)NCCCCCNC(=O)c3cccnc3)ccc21 [Compound 1-23]	77%
CCn1c2ccccc2c2c(OC)c(C(=O)NCCCCCNS(=O)(=O)c3cccc4ccccc34)ccc21 [Compound 1-36]	92%
CCn1c2ccccc2c2cc(C(=O)NCCCCCNC(=O)C3CCCCC3)ccc21 [Compound 1-19]	84%
CCn1c2ccccc2c2cc(C(=O)NCCN(C)CCNS(=O)(=O)c3cccc4ccccc34)ccc21 [Compound 1-30]	99%

Same assay, conditions: test compound 10 μM; 3H-NPY; membrane of insect cells expressing human Y5 receptor; 4° C., 2 hours; relative to Y5 specific binding in solvent group

SMILES	% Inhibition ratio (10 μM)
CCCCN(C)C(=O)Nc1ccc2c(c1)c1c(n2C(C)C)CCCC1 [Compound 5-3]	98%
O=C(Nc1ccc2c(c1)c1c(n2CC2CC2)CCCC1)N1CCOCC1 [Compound 8-7]	100%
CC(C)n1c2c(c3cc(NC(=O)N(C)CC(O)CO)ccc31)CCCC2 (stereo not drawn) [Compound 5-26]	108%
CC(C)n1c2c(c3cc(NC(=O)N(C)CCN4CCOCC4)ccc31)CCCC2 [Compound 5-16]	86%
CC(C)n1c2c(c3cc(NC(=O)N(C)CCc4ccncc4)ccc31)CCC2 [Compound 10-3]	95%
CC(C)n1c2c(c3cc(NC(=O)N4C[C@@H](C)O[C@@H](C)C4)ccc31)CCCC2 [Compound 7-16]	96%
CC(C)n1c2c(c3cc(NC(=O)N(C)CCSc4nnc[nH]4)ccc31)CCCC2 [Compound 5-23]	98%
CC(C)n1c2c(c3cc(NC(=O)N(C)CCC#N)ccc31)CCCC2 [Compound 5-9]	98%
CC(C)n1c2c(c3cc(NC(=O)N4CCC(O)CC4)ccc31)CCCC2 [Compound 7-7]	97%
CC(C)n1c2c(c3cc(NC(=O)N(C)CCCSc4nnc[nH]4)ccc31)CCCC2 [Compound 5-24]	95%
CC(C)n1c2c(c3cc(NC(=O)N4CCCCCC4)ccc31)CCCC2 [Compound 7-3]	98%
CC(C)n1c2c(c3cc(NC(=O)N4CCCCC4CCO)ccc31)CCCC2 (stereo not drawn) [Compound 7-11]	95%
CCn1c2c(c3cc(NC(=O)N4CCOCC4)ccc31)CCCC2 [Compound 8-2]	95%
CC(C)n1c2c(c3cc(NC(=O)N4CCSCC4)ccc31)CCCC2 [Compound 7-15]	88%
